Test system: Alcaligenes sp. KS-85 creatine amidinohydrolase, SEQ ID NO: 2 (recombinant, produced in E. coli)
Assay: Km determination of creatine amidinohydrolase from Lineweaver-Burk plots
Type: biochemical
Conditions: urea formed quantified, 50 mM phosphate buffer pH 7.7, 37° C.
Experimental: The measurement of enzyme activity was conducted under the following conditions. 1 U of enzyme activity is defined as the amount which causes formation of 1 μmol of urea per minute.
6.63 g of creatine is dissolved in 500 ml of 50 mM phosphate buffer, pH 7.7.
10 g of .rho.-dimethylaminobenzaldehyde is dissolved in 500 ml ethanol (guaranteed reagent) and then mixed with a mixture of 575 ml deionized water and 75 ml conc. hydrochloric acid.
1) 0.9 ml of Solution 1 is pre-incubated as the substrate at 37° C. for 5 minutes.
2) 0.1 ml enzyme solution (adjusted to about 1-2 U/ml) is mixed with the substrate and allowed to react at 37° C. for 10 minutes.
3) Then, 2 ml of Solution 2 is mixed with the reaction solution.
4) Then, the mixture is allowed to stand at 25° C. for 20 minutes, and the absorbance at 435 nm is determined (OD sample).
5) As the blank, 0.9 ml of Solution 1 is incubated at 37° C. for 10 minutes and then 2 ml of Solution 2 and 0.1 ml enzyme solution are mixed with Solution 1, and the mixture is allowed to stand at 25° C. for 20 minutes, and the absorbance at 435 nm is determined (OD blank).
U/ml=ΔOD×18.06*×dilution degree

Q: For CN(CC(=O)O)C(=N)N [creatine], which Km is on record?
A: 13 mM

Reference: US5932466A, “Creatine amidinohydrolase gene, a novel recombinant DNA, and a process for producing creatine amidinohydrolase” (Kikkoman Corporation, priority 1994, dated 1999)
